For assay [1], the target named is T1, SHIP1 and STAT3 (Mus musculus, UniProt Q9ES52).
T1 construct: expressed in transfected cells; host or cells: J17 (SHIP1-/- mouse BMDM-derived line), lentiviral transduction
T1 sequence (Q9ES52 1-1191): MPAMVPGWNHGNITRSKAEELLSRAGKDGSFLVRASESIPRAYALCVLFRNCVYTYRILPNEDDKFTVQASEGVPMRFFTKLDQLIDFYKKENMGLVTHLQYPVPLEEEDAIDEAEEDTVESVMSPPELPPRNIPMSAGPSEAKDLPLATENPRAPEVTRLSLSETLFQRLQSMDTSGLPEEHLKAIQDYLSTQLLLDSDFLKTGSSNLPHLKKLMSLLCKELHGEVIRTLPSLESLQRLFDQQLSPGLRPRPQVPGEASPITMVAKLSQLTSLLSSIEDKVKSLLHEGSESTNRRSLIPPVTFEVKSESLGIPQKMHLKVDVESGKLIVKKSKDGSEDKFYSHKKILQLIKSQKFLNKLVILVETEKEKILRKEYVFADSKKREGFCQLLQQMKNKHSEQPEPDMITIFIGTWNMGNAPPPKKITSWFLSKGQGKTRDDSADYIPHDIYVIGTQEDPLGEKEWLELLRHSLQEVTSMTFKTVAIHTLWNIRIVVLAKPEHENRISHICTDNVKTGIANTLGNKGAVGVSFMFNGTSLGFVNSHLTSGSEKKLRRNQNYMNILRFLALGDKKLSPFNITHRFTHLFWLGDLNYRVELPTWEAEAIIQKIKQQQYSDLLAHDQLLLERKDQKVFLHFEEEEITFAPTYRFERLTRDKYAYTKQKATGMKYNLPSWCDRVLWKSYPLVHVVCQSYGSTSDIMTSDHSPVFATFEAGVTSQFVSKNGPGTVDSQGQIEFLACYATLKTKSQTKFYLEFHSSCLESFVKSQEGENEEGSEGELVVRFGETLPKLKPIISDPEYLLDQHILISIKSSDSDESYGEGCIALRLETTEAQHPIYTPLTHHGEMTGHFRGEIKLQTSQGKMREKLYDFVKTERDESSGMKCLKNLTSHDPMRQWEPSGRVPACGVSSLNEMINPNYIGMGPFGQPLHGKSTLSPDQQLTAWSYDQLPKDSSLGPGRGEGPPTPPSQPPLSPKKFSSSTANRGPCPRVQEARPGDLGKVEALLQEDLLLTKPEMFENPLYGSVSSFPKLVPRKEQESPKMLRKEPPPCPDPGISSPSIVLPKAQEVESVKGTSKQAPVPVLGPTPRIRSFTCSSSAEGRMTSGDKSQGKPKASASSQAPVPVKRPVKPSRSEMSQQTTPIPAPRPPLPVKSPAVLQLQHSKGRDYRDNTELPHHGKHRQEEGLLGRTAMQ
As to the kind of experiment: In vitro pull down assay of His6-SHIP1 with STAT3. It counts as cell-based. To be noted: J17 His6-SHIP1 cells; 100 ng/ml IL10 or IL6, 20 μM compound I-2; 5 minutes. How it is done: In vitro pull down assay. J17 His6-SHIP1 and Y190F cells were seeded at 2×10^6 cells per well in a 6-well plate. After overnight incubation, fresh cell media was added for 30 minutes before stimulation with 100 ng/ml IL10, […] or 20 μM compound I-2 for 5 minutes. Cells were lysed with Protein Solubilization Buffer (PSB, 50 mM Hepes, pH 7.5, […], 10 mM Na Pyrophosphate, 2 mM NaVO4, 2 mM Na Molybdate, 2 mM EDTA) containing 1% octylglucoside, 0.01 M imidazole, and protease inhibitor cocktail (Roche Diagnostics, Laval, QC) for 30 minutes at 4° C. and centrifuged at 10000 rpm for 15 minutes. EDTA resistant Ni beads (Roche Diagnostics, Laval, QC) were added to supernatants and the mixture incubated at 4° C. for 1 hour before spinning down and washing of beads three times with 0.1% octylglucoside wash buffer in PSB. Bead samples and starting material cell lysates were separated on a 7.5% SDS-PAGE gel.
Immunoblotting. Protein lysates were separated on SDS-PAGE gels and transferred onto polyvinylidene fluoride (PVDF) membrane (Millipore, Etobicoke, ON). Membranes were blocked and probed, where appropriate, with the following primary antibodies overnight: SHIP1 (P1C1) (Santa Cruz Biotechnology), pSHIP1 (Y190) (Kinexus), STAT3 (9D8) (ThermoFisher Scientific), pSTAT3 (Y705) (Thermo Fisher Scientific), STAT1 (BD Transduction Laboratories), pSTAT1 (Y701) (Upstate Biotechnology), GAPDH and actin (Sigma-Aldrich). Membranes were developed with either Alexa Fluor® 660 anti-mouse IgG or Alexa Fluor® 680 anti-rabbit IgG antibodies (Thermo Fisher Scientific) and imaged using a LI-COR Odyssey Imager.

The target in assay [2] is T1, SHIP1 and STAT3. As to the kind of experiment: Immunofluorescence of SHIP1 and STAT3 subcellular localization in peritoneal macrophages. It counts as cell-based. To be noted: for membrane association of SHIP1 and STAT3 / nuclear localization of SHIP1 and STAT3: wild-type perimacs, 100 ng/ml IL10 or 20 μM I-2; for membrane association of SHIP1 and STAT3: 2 min; for nuclear localization of SHIP1 and STAT3: 20 min. As to the method: Isolation of mouse peritoneal macrophages. Primary peritoneal macrophages (perimacs) were isolated from mice by peritoneal lavage with 3 ml of sterile Phosphate Buffered Saline (PBS) (Thermo Fisher Scientific, Nepean, ON). Perimacs were collected and transferred to Mac media.
Immunofluorescence. Perimacs were seeded at 3×10^5 cells per well in 18-well Ibidi p-Slides (Ibidi GmbH, Martinsried, Germany) and allowed to adhere for 3 hours before washing with PBS to remove non-adherent cells. CD8+ T cells were seeded at 2×10^6 cells in 12-well tissue culture plates. Cells were stimulated with either 100 ng/ml IL10 or 20 μM compound I-2 for 2 or 20 minutes followed by 3×PBS washes and fixing of cells in 4% paraformaldehyde for 15 minutes at room temperature. Cells were incubated with anti-mouse CD16/CD32 Fc Block (BD Pharmingen) for 1 hour followed by an overnight incubation at 4° C. with either anti-SHIP1 antibody (P1C1) (Santa Cruz Biotechnology) or anti-STAT3 antibody (9D8) (ThermoFisher Scientific). Cells were then incubated with anti-mouse IgG (H+L)-Alexa Fluor 660 secondary antibody (ThermoFisher Scientific) for 1 hour, followed by, for perimacs, anti-CD11b-FITC antibody (BD Pharmingen) for 30 minutes. CD8+ T cells were mounted onto 18-well Ibidi p-Slides prior to confocal microscopy and cells were stored in Ibidi Mounting Media supplemented with ProLong Gold antifade reagent with DAPI (Molecular Probes, Life Technologies). Cells were imaged on a Leica SP5II on DM6000 confocal microscope with a 63×/1.4-0.6 Oil PL APO objective using 405, 488 and 633 nm laser lines for excitation. Final images were scanned sequentially acquiring eight Z-stacks with a frame-average of four. Co-localization analysis was performed using ImageJ software by first combining individual z-stack confocal images then performing deconvolution and co-localization using CUDA deconvolution and JACoP plugins respectively. Pearson's coefficient values were produced as a measurement of the degree of overlap between SHIP1 or STAT3 with CD11b (for Perimacs) or DAPI.

Take `Cc1cc(O)cc2c1C1(C)CCC3C(C)(C)CCCC3(C)C1C2` (centres unmarked) [Compound I-1]: at SHIP1 and STAT3 [1], the “association (co-precipitation) of SHIP1 and STAT3” value (“association (co-precipitation)” for short) is listed as “could by itself induce formation of a SHIP1/STAT3 complex”. For the same compound, the “mimicry of IL10 with respect to SHIP1 and STAT3 translocations” value at SHIP1 and STAT3 [2] (peritoneal macrophages) is “can mimic IL10”.

In the case of `CC12CCC3C(C)(C)C(N)CCC3(C)C1Cc1cc(O)cc(O)c12` (centres unmarked) [Compound I-2], the “association (co-precipitation)” value on SHIP1 and STAT3 [1] was “sufficient to induce association of SHIP1 and STAT3”. In addition, at SHIP1 and STAT3 [2], the “membrane association of SHIP1 and STAT3” value was “induced membrane association of both SHIP1 and STAT3”; the “nuclear localization of SHIP1 and STAT3” value is “both SHIP1 and STAT3 are found in the nucleus”.

Turning to “IL10: anti-inflammatory cytokine interleukin-10”, the “association (co-precipitation)” value in the assay with SHIP1 and STAT3 [1] is on record as “resulted in co-precipitation of SHIP1 with STAT3”. Also, in the assay with SHIP1 and STAT3 [2], the “membrane association of SHIP1 and STAT3” value was “induced membrane association of both SHIP1 and STAT3”; the “nuclear localization of SHIP1 and STAT3” value was “both SHIP1 and STAT3 are found in the nucleus”.

The values are drawn from patent US20230174571A1, “METHOD OF TREATING SHIP1-MEDIATED DISEASES USING PELOROL DERIVATIVES” (Zebrapeutics Inc., priority 2020, published 2023).
